Entries after “also recorded” stand apart in the source; their conditions may differ.
How the values were obtained:
[1] = test system: SC4 DM+ cells (M249-VSR single-cell-derived clone); test: FISH assessment of HSRs after long-term DNA-PK inhibition; format: cell-based, human; settings: 5 μM NU7026 for 107 days vs DMSO 90 days; FIG. 2E
Method: (§1) Cells were blocked at metaphases by adding colcemid (KaryoMax, Thermo Fisher Scientific) at a final concentration of 0.05 μg/ml followed by incubation at 37° C. for 6-8 hours. Cells were then fixed using methanol:acetic acid (3:1). FISH slides were prepared by dropping fixed cells in a humid environment following the manufacture's protocol provided by Cytotest and Empire Genomics. FFPE xenograft tumor FISH slides were prepared by pepsin digestion followed by similar procedures of cell line FISH. Colored FISH images were taken and processed using confocal microscope Leica TCS SP8 X. Karyotype categorizations were based on the guidelines in FIG. 8. The fractions under certain images represent the number of cases for corresponding karyotype divided by total number of cases analyzed. If not otherwise mentioned, scale bars in FISH images represent 10 μm. Centromere probe names are abbreviated as CEN-x. DM numbers were quantified by directly counting the number of features in the FISH images or by using ecDNA quantification tool EcSeg (93). HSR lengths were quantified by dividing the probe area by chromosomal DAPI area in metaphases. The staining areas were calculated using ImageJ v1.53a. Cells fixed by the same procedure were also used for G-banding. G-banded metaphase spreads were photographed using 80i Nikon Microscope and Applied Spectral Imaging (ASI) Karyotyping system. […]

[2] = test system: SC2 cells (M249-VSR HSR subclone); test: FISH count of HSRs per cell after long-term DNA-PK inhibition; format: cell-based, human; settings: 5 μM NU7026 for three months vs DMSO; FIG. 2G
Method: as §1

[3] = test system: M249-VSR sublines; test: Viability assay for inducing and protecting from ferroptosis; format: cell-based, human; settings: added in combination with RSL3; CellTiter-Glo 24 hr after treatment; FIG. 7B-C / 24B-C
Method: 6000 cells were seeded per well in 96-well plates and treated with ferroptosis inducing agents in combination with vehicle, GSH (Sigma, G4376), Trolox (Acros Organics, 218940010) or DFO (Sigma, D9533) next day. CellTiter-Glo luminescence was assessed 24 hr after treatment. For quantification, all values are normalized to vehicle conditions. Resistance cells were maintained in full dose of MAPK inhibitors throughout the treatments to keep the BRAF amplifications.

[4] = test system: M249-P and M249-VSR-DM cells; test: Lipid ROS measurement by flow cytometry; format: cell-based, human; settings: FIG. 23A / 25A
[5] = test system: M249-P, M249-VSR-DM and M249-VSR-HSR cells; test: Dose response curve of ferroptosis inducing agents, viability by CellTiter-Glo; format: cell-based, human; settings: for sensitivity to RSL3 of M249-VSR after drug withdrawal: after VEM+SEL withdrawal, reduced BRAF copy number
Method: (§2) The dose response curves of ferroptosis inducing agents RSL3, Erastin and Ferroptocide were performed by seeding appropriate number of cells on day 0 in 96-well plates, […] luminescent assay. If not otherwise mentioned, resistance cells were maintained in full dose of MAPK inhibitors throughout the dose response experiments to keep the BRAF amplifications. Seeding density for each cell line was determined by using the same assay and the same experimental length with multiple cell number titrations. The dose series were generated by serial dilutions. All drugs used for dose response curves were dissolved in DMSO. DMSO toxicity was performed on the cell lines to determine the appropriate DMSO concentration (0.5%), which was used in all doses. The resulting values from viability assays were normalized to the zero-dose condition after subtracting background (wells with no cells). The curve fittings were performed by using three-parameter model in dre v3.0-1 R package (119).

[6] = test system: A375-DTR cells vs parental; test: as above; format: cell-based
Method: as §2

[7] = test system: Mel888-DTR cells vs parental; test: as above; format: cell-based
Method: as §2

[8] = test system: M229P/R, M238P/R and SKMEL28P/R cell lines; settings: resistance through upregulation of RTKs, dedifferentiation; cited from earlier work

Q: With `O=c1cc(N2CCOCC2)oc2c1ccc1ccccc12` [NU7026] as the molecule, how does the “frequency of cells displaying HSR integrations” value [1] read?
A: Its value is “decreased the frequency of cells displaying HSR integrations”.

Q: What about the “percentage of cells with multiple HSRs” value [2] of the same molecule?
A: The value was “lower percentage of multiple HSRs”.

Q: For `N[C@@H](CCC(=O)N[C@@H](CS)C(=O)NCC(=O)O)C(=O)O` [GSH, reduced glutathione], which “rescue of RSL3-induced cell death (percent viable cells)” value [3] is on record?
A: The value was “cell death can be rescued”.

Q: With `Cc1c(C)c2c(c(C)c1O)CCC(C)(C(=O)O)O2` (stereo not shown) [Trolox] as the molecule, how does the “rescue of RSL3-induced cell death (percent viable cells)” value [3] read?
A: The value was “cell death can be rescued”.

Q: And the “protection against RSL3-induced lipid ROS” value ([4]; 150 μM Trolox with 1 μM RSL3, 24 hr)?
A: Its value is “protected; also recorded: protects against RSL3-induced lipid ROS”.

Q: Which “sensitivity of BRAF-amplified M249 dual MAPKi-resistant cells compared to parental” value ([5]; FIG. 23B, M249-VSR-DM and -HSR, 72 hr treatment, CellTiter-Glo) does the source give for `C[C@@H]1CC[C@@]23C[C@H](O)C(=O)[C@@]2(O)[C@]1(C)[C@H](OC(=O)CCl)C[C@@H](C1=CCn2c(=O)n(-c4ccccc4)c(=O)n2C1)[C@@H]3C` [ferroptocide] here?
A: The value was “sensitive”.

Q: Which “sensitivity to RSL3 of M249-VSR-DM and -HSR compared to M249-P” value ([5]; FIG. 7A, 72 hr treatment) does the source give for `COC(=O)c1ccc([C@@H]2c3[nH]c4ccccc4c3C[C@@H](C(=O)OC)N2C(=O)CCl)cc1` [RSL3] here?
A: Its value is “substantially more sensitive”.

Q: What about the “sensitivity to RSL3 of M249-VSR after drug withdrawal” value ([5]; FIG. 7A, 72 hr treatment) of the same molecule?
A: Its value is “lose sensitivity reverting to levels closer to the parental cells”.

Q: What about the “sensitivity to RSL3 of M249-VSR-DM and -HSR compared to M249-P” value ([5]; FIG. 24A, 24 hr treatment, CellTiter-Glo, resistant cells kept in full dose MAPK inhibitors) of the same molecule?
A: The value was “substantially more sensitive”.

Q: And the “sensitivity to RSL3 of M249-VSR after drug withdrawal” value ([5]; FIG. 24A, 24 hr treatment)?
A: The value was “lose sensitivity reverting to levels closer to the parental cells”.

Q: What about the “RSL3 sensitivity of A375-DTR compared to parental” value ([6]; FIG. 7A, 72 hr treatment) of the same molecule?
A: The value was “increased RSL3 sensitivity”.

Q: And the “RSL3 sensitivity of A375-DTR compared to parental” value ([6]; FIG. 24A, 24 hr treatment)?
A: The value was “increased RSL3 sensitivity”.

Q: And the “RSL3 sensitivity of Mel888-DTR compared to parental” value ([7]; FIG. 7A, 72 hr treatment)?
A: The value was “increased RSL3 sensitivity”.

Q: What about the “RSL3 sensitivity of Mel888-DTR compared to parental” value ([7]; FIG. 24A, 24 hr treatment) of the same molecule?
A: The value was “increased RSL3 sensitivity”.

Q: What about the “lipid ROS levels upon RSL3 treatment” value ([4]; 1 μM RSL3, 24 hr, C11-BODIPY dye) of the same molecule?
A: The value was “increased lipid ROS levels; also recorded: increase in lipid ROS levels”.

Q: And the “sensitivity to RSL3 of resistant vs parental lines” value [8]?
A: The value was “increased sensitivity”.

— patent US20240424002A1, “METHODS AND COMPOSITIONS FOR TREATING MELANOMA” (THE REGENTS OF THE UNIVERSITY OF CALIFORNIA, priority 2021, published 2024)
